Source: patent publication US20250388589A1, “TRICYCLIC HETEROCYCLIC DERIVATIVES, COMPOSITIONS AND USES THEREOF” (Danatlas Pharmaceuticals Co., Ltd., priority 2022, published 2025)

Assays:
[1] = target: hPARG (C-terminal His6-tag) (Homo sapiens (Human), UniProt Q86W56); experiment: PARG Enzymatic Activity Assay (HTRF); format: biochemical; conditions: hPARG 65 pM final, biotinylated-NAD ribosylated PARP1 8 nM final
Procedure, shortened: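 Readout is time-resolved fluorescence at 620 and 665 nm after 60 min RT detection with streptavidin-Eu cryptate and anti-6HIS-XL665; IC50 by 4-parameter fit, 1% DMSO and no-enzyme controls. Reaction: 8 nM final ribosylated PARP1 substrate for 10 min RT, following 60 min RT enzyme (65 pM)–compound preincubation in Tris pH 7.4 buffer with EDTA, DTT, KCl.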

[2] = test system: Kuramochi cell line; experiment: Cell Viability Assay (Cell Titer-Glo, 7 days); format: cell-based; conditions: 168 h, Kuramochi cells, 7 days incubation, read-out: PARG Cell viability (IC50)
Procedure, shortened: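 IC50 from a four-parameter fit of CellTiter-Glo luminescence, scaled between DMSO-treated (high) and medium-only (low) wells. Kuramochi cells (400/well, RPMI/10% FBS) exposed 7 days at 37 °C to 9 concentrations, 3-fold steps, in duplicate.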

Sequence of hPARG (C-terminal His6-tag) (Q86W56 whole entry): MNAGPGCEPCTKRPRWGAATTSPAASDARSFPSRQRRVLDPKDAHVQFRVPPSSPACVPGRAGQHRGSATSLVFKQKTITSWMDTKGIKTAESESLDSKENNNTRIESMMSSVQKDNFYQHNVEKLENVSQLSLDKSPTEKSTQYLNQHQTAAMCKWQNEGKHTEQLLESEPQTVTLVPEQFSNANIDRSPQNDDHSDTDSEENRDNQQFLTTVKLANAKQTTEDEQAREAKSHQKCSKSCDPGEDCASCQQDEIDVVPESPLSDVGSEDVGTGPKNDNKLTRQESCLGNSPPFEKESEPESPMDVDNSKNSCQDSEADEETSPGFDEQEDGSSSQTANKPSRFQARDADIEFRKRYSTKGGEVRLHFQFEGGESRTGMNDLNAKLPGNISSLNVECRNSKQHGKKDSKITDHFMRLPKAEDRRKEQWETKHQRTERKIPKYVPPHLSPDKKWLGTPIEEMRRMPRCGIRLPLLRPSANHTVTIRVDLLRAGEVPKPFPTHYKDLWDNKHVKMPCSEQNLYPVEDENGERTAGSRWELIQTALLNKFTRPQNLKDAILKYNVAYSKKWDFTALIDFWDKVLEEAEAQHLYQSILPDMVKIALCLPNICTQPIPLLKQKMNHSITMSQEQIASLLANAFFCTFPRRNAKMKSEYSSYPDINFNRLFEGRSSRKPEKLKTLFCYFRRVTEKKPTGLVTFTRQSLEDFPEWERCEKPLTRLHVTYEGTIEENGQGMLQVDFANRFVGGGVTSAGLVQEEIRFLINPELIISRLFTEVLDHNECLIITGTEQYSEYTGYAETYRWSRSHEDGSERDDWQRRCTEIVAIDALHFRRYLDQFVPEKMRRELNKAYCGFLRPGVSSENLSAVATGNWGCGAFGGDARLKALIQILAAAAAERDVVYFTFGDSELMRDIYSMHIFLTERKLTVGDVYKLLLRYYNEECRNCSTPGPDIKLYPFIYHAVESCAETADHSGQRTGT

Structure (SMILES) | IC50 [1] [nM] | IC50 [2] [nM]
C[C@@H]1CN(C(=O)N(C)C)CCN1c1ncnc2c1c1ccc(S(=O)(=O)NC3(C#N)CC3)cc1n2-c1nnc(C(F)F)s1 [Example 73, (R)-4-(7-(N-(1-Cyanocyclopropyl)sulfamoyl)-9-(5-(difluoromethyl)-1,3,4-thiadiazol-2-yl)-9H-pyrimido[4,5-b]indol-4-yl)-N,N,3-trimethylpiperazine-1-carboxamide] | < 100 | < 100
CC(C)C(=O)N1CC=C(c2ncnc3c2c2ccc(S(=O)(=O)NC4(C#N)CC4)cc2n3-c2nnc(C(F)F)s2)CC1 [Example 74, N-(1-Cyanocyclopropyl)-9-(5-(difluoromethyl)-1,3,4-thiadiazol-2-yl)-4-(1-isobutyryl-1,2,3,6-tetrahydropyridin-4-yl)-9H-pyrimido[4,5-b]indole-7-sulfonamide] | < 100 | < 100
CC(C)C(=O)N1C=CC(c2ncnc3c2c2ccc(S(=O)(=O)NC4(C#N)CC4)cc2n3-c2nnc(C(F)F)s2)CC1 (centres unmarked) [Example 75, N-(1-Cyanocyclopropyl)-9-(5-(difluoromethyl)-1,3,4-thiadiazol-2-yl)-4-(1-isobutyryl-1,2,3,4-tetrahydropyridin-4-yl)-9H-pyrimido[4,5-b]indole-7-sulfonamide] | < 100 | < 100
CC(C)C(=O)N1CCC(c2ncnc3c2c2ccc(S(=O)(=O)NC4(C#N)CC4)cc2n3-c2nnc(C(F)F)s2)CC1 [Example 76, N-(1-Cyanocyclopropyl)-9-(5-(difluoromethyl)-1,3,4-thiadiazol-2-yl)-4-(1-isobutyrylpiperidin-4-yl)-9H-pyrimido[4,5-b]indole-7-sulfonamide] | < 100 | < 100
CN1CC=C(c2ncnc3c2c2ccc(S(=O)(=O)NC4(C#N)CC4)cc2n3-c2nnc(C(F)F)s2)CC1 [Example 77, N-(1-Cyanocyclopropyl)-9-(5-(difluoromethyl)-1,3,4-thiadiazol-2-yl)-4-(1-methyl-1,2,3,6-tetrahydropyridin-4-yl)-9H-pyrimido[4,5-b]indole-7-sulfonamide] | < 100 | < 100
N#CC1(NS(=O)(=O)c2ccc3c4c(C5=CCOCC5)ncnc4n(-c4nnc(C(F)F)s4)c3c2)CC1 [Example 78, N-(1-Cyanocyclopropyl)-9-(5-(difluoromethyl)-1,3,4-thiadiazol-2-yl)-4-(3,6-dihydro-2H-pyran-4-yl)-9H-pyrimido[4,5-b]indole-7-sulfonamide] | < 100 | 100 to 1000
N#CC1(NS(=O)(=O)c2ccc3c4c(C5CCOCC5)ncnc4n(-c4nnc(C(F)F)s4)c3c2)CC1 [Example 79, N-(1-Cyanocyclopropyl)-9-(5-(difluoromethyl)-1,3,4-thiadiazol-2-yl)-4-(tetrahydro-2H-pyran-4-yl)-9H-pyrimido[4,5-b]indole-7-sulfonamide] | < 100 | < 100
N#CC1(NS(=O)(=O)c2ccc3c4c(N5CCC(O)CC5)ccnc4n(-c4nnc(C(F)F)s4)c3c2)CC1 [Example 80, N-(1-Cyanocyclopropyl)-9-(5-(difluoromethyl)-1,3,4-thiadiazol-2-yl)-4-(4-hydroxypiperidin-1-yl)-9H-pyrido[2,3-b]indole-7-sulfonamide] | 100 to 1000 | 100 to 1000
CN(C)C(=O)N1CC=C(c2ncnc3c2c2cc(F)c(S(=O)(=O)NC4(C)CC4)cc2n3-c2nnc(C(F)F)s2)CC1 [Example 81, 4-(9-(5-(Difluoromethyl)-1,3,4-thiadiazol-2-yl)-6-fluoro-7-(N-(1-methylcyclopropyl)sulfamoyl)-9H-pyrimido[4,5-b]indol-4-yl)-N,N-dimethyl-3,6-dihydropyridine-1(2H)-carboxamide] | < 100 | < 100
CN(C)C(=O)N1CCC(c2ncnc3c2c2cc(F)c(S(=O)(=O)NC4(C)CC4)cc2n3-c2nnc(C(F)F)s2)CC1 [Example 82, 4-(9-(5-(Difluoromethyl)-1,3,4-thiadiazol-2-yl)-6-fluoro-7-(N-(1-methylcyclopropyl)sulfamoyl)-9H-pyrimido[4,5-b]indol-4-yl)-N,N-dimethylpiperidine-1-carboxamide] | < 100 | < 100
